# Source: patent US20250144067A1, “PERSONALIZED STARVATION THERAPY FOR CANCER” (Faeth Therapeutics, Inc., priority 2021, published 2025)
# Counter-ions that a name gives are not always drawn. Like-named read-outs stand apart in the source and are kept apart here.
# Tests used:
# [1] = tested on: NCI-H292 lung cancer cells; assay: FDA drug screening, complete media vs cholesterol-free media with simvastatin (TABLE 2); assay type: cell-based, human
# [2] = tested on: NCI-H292 lung cancer cells; assay: FDA drug screening, complete media vs cholesterol-free media without statin (TABLE 1); assay type: cell-based, human
# [3] = NCI-H292 cells, cholesterol-free media with simvastatin 0.04 μM, FDA drug library screen (TABLE 2)
# [4] = NCI-H292 cells, complete media, FDA drug library screen (TABLE 2)
# [5] = complete media minus cholesterol-free media + simvastatin (0.04 μM), >0 enhanced anti-cancer activity, about 0 neutral, <0 antagonist
# [6] = NCI-H292 cells, cholesterol-free media without statin
# [7] = complete vs cholesterol-free media, greater than 0 enhanced anti-cancer activity, about 0 neutral, below 0 antagonists
# [8] = NCI-H292 cells, FDA drug library screen, cholesterol-free media with simvastatin 0.04 μM
# [9] = NCI-H292 cells, FDA drug library screen, complete media
# [10] = complete media minus cholesterol-free media + simvastatin, >0 enhanced anti-cancer activity, about 0 neutral, <0 antagonist
# [11] = complete media vs cholesterol-free media + simvastatin (0.04 μM), >0 enhanced anti-cancer activity, about 0 neutral, <0 antagonist
# [12] = Complete minus Cholesterol-free, greater than 0 enhanced anti-cancer activity, about 0 neutral, below 0 antagonists
# [13] = NCI-H292 cells in cholesterol-free media without statin
# [14] = NCI-H292 cells in complete media
# [15] = NCI-H292 cells, cholesterol-free media with simvastatin 0.04 μM, cell growth value in FDA drug screen
# [16] = NCI-H292 cells, complete media, cell growth value in FDA drug screen
# [17] = Complete minus Cholesterol-free, >0 enhanced anti-cancer activity, about 0 neutral, <0 antagonist
# [18] = NCI-H292 cells, cholesterol-free media without statin, FDA drug library screen
# [19] = NCI-H292 cells, complete media, FDA drug library screen
compound,measurement,setting,value
CCn1cc(C(=O)O)c(=O)c2cnc(N3CCNCC3)nc21 [Pipemidic acid],Cholesterol-free media + simvastatin (0.04 μM),[1]; [3],1.008
same,Complete Media,[1]; [4],0.9896
same,Difference,[1]; [5],−0.02
same,Cholesterol-free,[2]; [6],1.181
same,Complete,"[2]; NCI-H292 cells, complete media",0.8267
same,Difference,[2]; [7],−0.35
CCCN(CCC)CCc1cccc2c1CC(=O)N2 [Ropinirole (hydrochloride)],Cholesterol-free media + simvastatin (0.04 μM),[1]; [8],0.879
same,Complete Media,[1]; [9],1.185
same,Difference,[1]; [10],0.31
same,Cholesterol-free,[2]; [6],1.101
same,Complete,"[2]; NCI-H292 cells, complete media",0.7874
same,Difference,[2]; [7],−0.31
CCC1(c2ccccc2)C(=O)NCNC1=O [Primidone],Cholesterol-free media + simvastatin (0.04 μM),[1]; [8],0.9863
same,Complete Media,[1]; [9],0.8914
same,Difference,[1]; [11],−0.09
same,Difference,[2]; [12],−0.48
same,Cholesterol-free,[2]; [13],1.462
same,Complete,[2]; [14],0.9788
CCCCNc1cc(C(=O)O)cc(S(N)(=O)=O)c1Oc1ccccc1 [Bumetanide],Cholesterol-free media + simvastatin (0.04 μM),[1]; [15],1.046
same,Complete Media,[1]; [16],1.138
same,Difference,[1]; [10],0.09
same,Difference,[2]; [17],0.04
same,Cholesterol-free,[2]; [18],0.6987
same,Complete,[2]; [19],0.7406
Cc1cn([C@H]2O[C@@H](CO)[C@H](O)[C@H]2F)c(=O)[nH]c1=O [Clevudine],Cholesterol-free media + simvastatin (0.04 μM),[1]; [8],0.7152
same,Complete Media,[1]; [9],0.881
same,Difference,[1]; [10],0.17
same,Difference,[2]; [17],−0.06
same,Cholesterol-free,[2]; [18],0.975
same,Complete,[2]; [19],0.9127
CO/N=C(\C(=O)N[C@@H]1C(=O)N2C(C(=O)O)=C(Cn3ccc(=N)n3CCO)CS[C@H]12)c1csc(N)n1.O=S(=O)(O)O [Cefoselis (sulfate)],Cholesterol-free media + simvastatin (0.04 μM),[1]; [15],1.07
same,Complete Media,[1]; [16],1.107
same,Difference,[1]; [10],0.04
same,Cholesterol-free,[2]; [18],0.955
same,Complete,[2]; [19],1.116
same,Difference,"[2]; complete vs cholesterol-free media, >0 enhanced anti-cancer activity, about 0 neutral, <0 antagonist",0.16
CN(CC(=O)O)C(=N)N [Creatine],Cholesterol-free media + simvastatin (0.04 μM),[1]; [8],1.925
same,Complete Media,[1]; [9],1.831
same,Difference,[1]; [11],−0.09
same,Difference,[2]; [12],−0.96
same,Cholesterol-free,[2]; [13],2.303
same,Complete,[2]; [14],1.348
CCCCOCCOCCOCc1cc2c(cc1CCC)OCO2 [Piperonyl butoxide],Cholesterol-free media + simvastatin (0.04 μM),[1]; [3],1.206
same,Complete Media,[1]; [4],1.18
same,Difference,[1]; [5],−0.03
same,Difference,[2]; [17],−0.29
same,Cholesterol-free,[2]; [6],1.491
same,Complete,"[2]; NCI-H292 cells, complete media",1.202
O=C(O)c1ccccc1O [Salicylic acid],Cholesterol-free media + simvastatin (0.04 μM),[1]; [8],0.9788
same,Complete Media,[1]; [9],0.8703
same,Difference,[1]; [11],−0.11
same,Difference,"[2]; Complete minus Cholesterol-free, greater than 0 enhanced anti-cancer activity, about 0 neutral, below 0 antagonist",−0.09
same,Cholesterol-free,"[2]; NCI-H292 cells, FDA drug library screen, cholesterol-free media without statin",0.9773
same,Complete,[2]; [9],0.8829
Clc1ccccc1C(c1ccccc1)(c1ccccc1)n1ccnc1 [Clotrimazole],Cholesterol-free media + simvastatin (0.04 μM),[1]; [8],0.4166
same,Complete Media,[1]; [9],0.8582
same,Difference,[1]; [10],0.44
same,Difference,[2]; [12],−0.77
same,Cholesterol-free,[2]; [13],1.485
same,Complete,[2]; [14],0.7188
COc1ccc(CCN(C)CCCC(C#N)(c2ccc(OC)c(OC)c2)C(C)C)cc1OC (stereo not drawn) [Verapamil (hydrochloride)],Cholesterol-free media + simvastatin (0.04 μM),[1],1.071
same,Complete Media,[1],1.013
same,Difference,[1],−0.06
same,Cholesterol-free,[2],0.9873
same,Complete,[2],0.8558
same,Difference,[2],−0.13
O=S(=O)(O)Oc1ccc(C(c2ccc(OS(=O)(=O)O)cc2)c2ccccn2)cc1 [Sodium Picosulfate],Cholesterol-free media + simvastatin (0.04 μM),[1]; [8],0.987
same,Complete Media,[1]; [9],1.164
same,Difference,[1]; [10],0.18
same,Cholesterol-free,[2]; [6],1.414
same,Complete,"[2]; NCI-H292 cells, complete media",1.043
same,Difference,[2]; [7],−0.37
